The source of these data is paper PMC11075021, “Asymmetric Synthesis of Chiral 2-Cyclohexenones with Quaternary Stereocenters via Ene-Reductase Catalyzed Desymmetrization of 2,5-Cyclohexadienones” (ACS Catalysis, 2024).

The structures appear in SMILES notation.

For the test, the target named is T1, YqjM (Bacillus subtilis, UniProt P54550).
T1 construct: gene namA; wild type, purified recombinant enzyme; dimer, both protomers line the active site
T1 sequence (P54550 2-338): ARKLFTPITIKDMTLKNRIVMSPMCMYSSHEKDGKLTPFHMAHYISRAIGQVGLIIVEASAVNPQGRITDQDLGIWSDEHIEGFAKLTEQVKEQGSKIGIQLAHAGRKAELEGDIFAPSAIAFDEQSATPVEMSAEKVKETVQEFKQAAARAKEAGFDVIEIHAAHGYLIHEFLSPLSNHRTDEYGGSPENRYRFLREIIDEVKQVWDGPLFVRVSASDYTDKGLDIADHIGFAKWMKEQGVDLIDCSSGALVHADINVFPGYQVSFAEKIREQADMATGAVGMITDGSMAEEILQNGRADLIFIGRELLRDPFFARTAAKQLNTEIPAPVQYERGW
Briefly: stopped-flow oxidation of prereduced enzyme. The conditions noted are these: anoxic; no kinetic saturation in the accessible range. It is filed as biochemical.

`C[C@@]1(c2ccccc2)C=CC(=O)CC1` [2a, cyclohexenone 2a]: the “kobs at 800 μM” value is given as “Both compounds oxidized prereduced YqjM relatively slowly”.
